# Patent US5334757A, “2-(2,3-dicarboxycyclopropyl) glycine and method for producing the same” (Suntory Limited, priority 1991, dated 1994)
# Entries after “also recorded” stand apart in the source; their conditions may differ. Like-named read-outs stand apart in the source and are kept apart here.
# How the values were obtained:
# non-NMDA type receptors = settings: Tetrahedron Letters 31 (28), 4049-4052 (1990); Brain Res. 550, 152-156 (1991); cited from earlier work
# NMDA type receptors = settings: Japanese Patent Laid-Open No. 093563/1991; cited from earlier work
# [1] = system: monosynaptic reflex in the newborn rat spinal cord preparation; settings: reported value for Baclofen, cited from earlier work
# [2] = system: newborn rat spinal cord preparation; assay: Measurement of depolarizing activity, newborn rat spinal cord preparation; type: cell-based; settings: relative to L-glutamic acid = 1
# [3] = system: monosynaptic reflex in the newborn rat spinal cord preparation; assay: Determination of monosynaptic reflex inhibition activity in the newborn rat spinal cord preparation; set-up: species or system newborn Wister rat; settings: for concentration inhibiting (50%) monosynaptic reflex relative to the IC50 of Baclofen: as multiple of IC50 of Baclofen; for monosynaptic reflex inhibition (in words) / IC50: newborn rat spinal cord preparation; for IC50: read-out: IC50 (50% inhibitory concentration), monosynaptic reflex inhibition
# Procedure: The spinal cord of a newborn Wister rat was taken out, as encircled by the spinal column, under etherization.
# A single stimulation was applied to a posterior root via a suction electrode and the anterior root reflection potential of the corresponding anterior root was recorded.
# DCG-I and DCG-II at various concentration were added to the perfusion solution and the monosynaptic reflexes thus caused were measured.
# NMDA receptors = assay: Depolarization under perfusion with CPP (NMDA receptor agonism); type: cell-based, newborn rat; settings: for depolarization on adding CPP: 3×10^-5 M CPP perfused; for NMDA type agonistic activity: electrophysiological assay, newborn rat spinal cord preparation
structure (smiles),measurement,setting,value
"N[C@H](C(=O)O)[C@@H]1[C@@H](COCc2ccccc2)[C@@H]1C(=O)O [(2S,1'R,2'R,3'R)-2-(2-carboxy-3-benzyloxymethylcyclopropyl)glycine]",non-NMDA type agonist activity,non-NMDA type receptors,agonists of the non-NMDA type
"COC[C@H]1[C@H](C(=O)O)[C@@H]1[C@H](N)C(=O)O [(2S,1'R,2'R,3'R)-2-(2-carboxy-3-methoxymethylcyclopropyl)glycine]",non-NMDA type agonist activity,non-NMDA type receptors,agonists of the non-NMDA type
"N[C@H](C(=O)O)[C@@H]1C[C@@H]1C(=O)O [(2S,1'R,2'S)-2-(2-carboxycyclopropyl)glycine]",NMDA type agonist activity,NMDA type receptors,potent agonist of the NMDA type superior to NMDA
NCC(CC(=O)O)c1ccc(Cl)cc1 (stereo not drawn) [Baclofen],IC50,[1]; in nM,~500 nM
same,IC50,[1],~500 nM
"N[C@H](C(=O)O)C1[C@@H](C(=O)O)[C@@H]1C(=O)O (stereo partly drawn) [DCG-I, (2S,1'R,2'R,3'R)-2-(2,3-dicarboxycyclopropyl)glycine]",Activity ratio,[2],33
same,concentration inhibiting (50%) monosynaptic reflex relative to the IC50 of Baclofen,[3],about 1/20
same,monosynaptic reflex inhibition (in words),[3],selectively inhibit monosynaptic reflex even at a low concentration
same,IC50,[3],60 nM
same,depolarization on adding CPP,NMDA receptors,completely inhibited
same,NMDA type agonistic activity,NMDA receptors,agonists for NMDA receptors; also recorded: agonist of the NMDA type
"N[C@H](C(=O)O)C1[C@H](C(=O)O)[C@H]1C(=O)O (stereo partly drawn) [DCG-II, (2S,1'S,2'S,3'S)-2-(2,3-dicarboxycyclopropyl)glycine]",Activity ratio,[2],0.5
same,concentration inhibiting (50%) monosynaptic reflex relative to the IC50 of Baclofen,[3],twice
same,monosynaptic reflex inhibition (in words),[3],selectively inhibit monosynaptic reflex even at a low concentration
same,IC50,[3],1000 nM
same,depolarization on adding CPP,NMDA receptors,completely inhibited
same,NMDA type agonistic activity,NMDA receptors,agonists for NMDA receptors; also recorded: only a week agonistic activity of the NMDA type
"N[C@@H](CCC(=O)O)C(=O)O [L-glutamic acid, reference compound]",Activity ratio,[2],1
